This series can be described thus: method code SF-AS, from DOI: 10.1002/jps.2600830428, PMID: 8046619. Particulars: pH 7.4.

We go through 3 compounds from the SangsterLogP compilation.

A word on the logD: it is the decadic logarithm of the distribution of all forms, ionised or not, between an organic phase and buffer at a given pH. A high value points to higher lipophilicity.

SMILES strings stand for the structures.

On to `O=c1nc(N=CN2CCOCC2)ccn1[C@@H]1O[C@H](CO)[C@@H](O)[C@@H]1O`, for which the logD was -1.66. Then `O=c1nc(N=CN2CCCC2)ccn1[C@@H]1O[C@H](CO)[C@@H](O)[C@@H]1O`, with -1.15; and `O=c1nc(/N=C/N2CCOCC2)ccn1[C@H]1C[C@H](O)[C@@H](CO)O1`, with -1.54.
